# Reference: patent US6608090B1, “Benzothiophenes with novel basic side chains” (Eli Lilly and Company, priority 1995, dated 2003)
# How the values were obtained:
# [1] = tested on: ovariectomized (OVX) female Sprague Dawley rats; experiment: Serum cholesterol in ovariectomized rats (post-menopausal model), 4 days of daily dosing; type: in vivo, rat; details: for Cholest. % dec. OVX: oral, daily for 4 days
# Protocol: (§1) In the examples illustrating the methods, a post-menopausal model was used in which effects of different treatments upon circulating lipids were determined.
# (§2) Seventy-five day old female Sprague Dawley rats (weight range of 200 to 225 g) were obtained from Charles River Laboratories (Portage, Mich.). The animals were either bilaterally ovariectomized (OVX) or exposed to a Sham surgical procedure at Charles River Laboratories, and then shipped after one week. Upon arrival, they were housed in metal hanging cages in groups of 3 or 4 per cage and had ad libitum access to food (calcium content approximately 0.5%) and water for one week. Room temperature was maintained at 22.2°±1.70° C. with a minimum relative humidity of 40%. The photoperiod in the room was 12 hours light and 12 hours dark.
# (§3) Dosina Reaimen Tissue Collection. After a one week acclimation period (therefore, two weeks post-OVX) daily dosing with test compound was initiated. 17α-ethynyl estradiol or the test compound were given orally, unless otherwise stated, as a suspension in 1% carboxymethylcellulose or dissolved in 20% cyclodextrin. Animals were dosed daily for 4 days. Following the dosing regimen, animals were weighed and anesthetized with a ketamine: xylazine (2:1, V:V) mixture and a blood sample was collected by cardiac puncture. The animals were then sacrificed by asphyxiation with CO2, the uterus was removed through a midline incision, and a wet uterine weight was determined.
# Cholesterol Analysis. Blood samples were allowed to clot at room temperature for 2 hours, and serum was obtained following centrifugation for 10 minutes at 3000 rpm. Serum cholesterol was determined using a Boehringer Mannheim Diagnostics high performance cholesterol assay. Briefly the cholesterol was oxidized to cholest-4-en-3-one and hydrogen peroxide. The hydrogen peroxide was then reacted with phenol and 4-aminophenazone in the presence of peroxidase to produce a p-quinone imine dye, which was read spectrophotemetrically at 500 nm. Cholesterol concentration was then calculated against a standard curve. The entire assay was automated using a Biomek Automated Workstation.
# [2] = tested on: ovariectomized (OVX) female Sprague Dawley rats; experiment: Wet uterine weight in ovariectomized rats, 4 days of daily dosing; details: rat, in vivo, po, 0.1 mg/kg/day
# Protocol: as §1, §2
# as §3, with “Following the dosing regimen, animals were weighed and anesthetized with a ketamine: xylazine (2:1, V:V) mixture and a blood sample was collected by cardiac puncture.” left out
# [3] = tested on: uteri of ovariectomized (OVX) female Sprague Dawley rats; experiment: Uterine Eosinophil Peroxidase (EPO) Assay; details: rat, in vivo
# ovariectomized rats = experiment: Osteoporosis Test Procedure: femur density in ovariectomized rats, 35 days; type: in vivo, rat; details: oral, in 20% hydroxypropyl β-cyclodextrin, daily for 35 days
# Protocol: Following the General Preparation Procedure, infra, the rats are treated daily for 35 days (6 rats per treatment group) and sacrificed by decapitation on the 36th day. The 35 day time period is sufficient to allow maximal reduction in bone density, measured as described herein. At the time of sacrifice, the uteri are removed, dissected free of extraneous tissue, and the fluid contents are expelled before determination of wet weight in order to confirm estrogen deficiency associated with complete ovariectomy. […] The uteri are then placed in 10% neutral buffered formalin to allow for subsequent histological analysis. The right femurs are excised and scanned at the distal metaphysis 1 mm from the patellar groove with single photon absorptiometry. Results of the densitometer measurements represent a calculation of bone density as a function of the bone mineral content and bone width. In accordance with the above procedures, compounds of the present invention and ethynyl estradiol (EE2) in 20% hydroxypropyl β-cyclodextrin are orally administered to test animals.
smiles,measurement,setting,value
O=C(c1ccc(OCCN2CCC[C@H]2CO)cc1)c1c(-c2ccc(O)cc2)sc2cc(O)ccc12,Cholest. % dec. OVX,[1]; 0.1 mg/kg,46.7%
same,Cholest. % dec. OVX,[1]; 1 mg/kg,73.7%
same,Cholest. % dec. OVX,[1]; 10 mg/kg,74.5%
CC1(C)CCN(CCOc2ccc(C(=O)c3c(-c4ccc(O)cc4)sc4cc(O)ccc34)cc2)CC1,Cholest. % dec. OVX,[1]; 0.1 mg/kg,14.5%
same,Cholest. % dec. OVX,[1]; 1 mg/kg,25.9%
same,Cholest. % dec. OVX,[1]; 10 mg/kg,65.8%
"C#C[C@]1(O)CC[C@H]2[C@@H]3CCc4cc(O)ccc4[C@H]3CC[C@@]21C [EE2, 17α-ethynyl estradiol]",uterine weight compared with ovariectomized test animals (in words),[2],substantially greater
same,"eosinophil infiltration into the uterus (stromal layer), in words",[3],"substantial, expected increase in esosinophils infiltration"
same,"loss of femur density (bone loss) after ovariectomy, in words",ovariectomized rats,prevents this loss
same,effect on serum cholesterol (in words),[1]; orally administered at 0.1 mg/Kg/day,caused a decrease in serum cholesterol
CC1CCCC(C)N1CCOc1ccc(C(=O)c2c(-c3ccc(O)cc3)sc3cc(O)ccc23)cc1 (stereo not shown),Cholest. % dec. OVX,[1]; 0.1 mg/kg,41.5%
same,Cholest. % dec. OVX,[1]; 1 mg/kg,62.3%
same,Cholest. % dec. OVX,[1]; 10 mg/kg,76.9%
CC1CC(C)CN(CCOc2ccc(C(=O)c3c(-c4ccc(O)cc4)sc4cc(O)ccc34)cc2)C1 (racemic),Cholest. % dec. OVX,[1]; 0.1 mg/kg,50.6%
same,Cholest. % dec. OVX,[1]; 1 mg/kg,69.7%
same,Cholest. % dec. OVX,[1]; 10 mg/kg,81.6%
CC1(C)CCCN(CCOc2ccc(C(=O)c3c(-c4ccc(O)cc4)sc4cc(O)ccc34)cc2)C1,Cholest. % dec. OVX,[1]; 0.1 mg/kg,25.1%
same,Cholest. % dec. OVX,[1]; 1 mg/kg,58.6%
same,Cholest. % dec. OVX,[1]; 10 mg/kg,50.9%
C[C@@H]1C[C@H](C)CN(CCOc2ccc(C(=O)c3c(-c4ccc(O)cc4)sc4cc(O)ccc34)cc2)C1,Cholest. % dec. OVX,[1]; 0.1 mg/kg,13.8%
same,Cholest. % dec. OVX,[1]; 1 mg/kg,66.8%
same,Cholest. % dec. OVX,[1]; 10 mg/kg,85.5%
O=C(c1ccc(OCCN2CCC[C@@H]2CO)cc1)c1c(-c2ccc(O)cc2)sc2cc(O)ccc12,Cholest. % dec. OVX,[1]; 0.1 mg/kg,42.0%
same,Cholest. % dec. OVX,[1]; 1 mg/kg,40.6%
same,Cholest. % dec. OVX,[1]; 10 mg/kg,71.9%
COC[C@@H]1CCCN1CCOc1ccc(C(=O)c2c(-c3ccc(O)cc3)sc3cc(O)ccc23)cc1,Cholest. % dec. OVX,[1]; 0.1 mg/kg,30.2%
same,Cholest. % dec. OVX,[1]; 1 mg/kg,65.4%
same,Cholest. % dec. OVX,[1]; 10 mg/kg,80.3%
CC1CCN(CCOc2ccc(C(=O)c3c(-c4ccc(O)cc4)sc4cc(O)ccc34)cc2)CC1,Cholest. % dec. OVX,[1]; 0.1 mg/kg,43.2%
same,Cholest. % dec. OVX,[1]; 1 mg/kg,71.0%
same,Cholest. % dec. OVX,[1]; 10 mg/kg,51.6%
